Experimental data as given in PubChem BioAssay (NCI).
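Briefly, cells in 96-well plates were exposed to five compound concentrations for 48 h, and endpoints were estimated by linear interpolation. GI50: concentration for 50% inhibition of growth. At the TGI there is no net growth.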

Key:
Experiment in all cases: DTP human tumour cell line panel, 48 h
SN12C renal = test system: SN12C renal
SF-539 CNS = test system: SF-539 CNS
PC-3 prostate = test system: PC-3 prostate
OVCAR-8 ovarian = test system: OVCAR-8 ovarian
NCI-H226 lung = test system: NCI-H226 lung
TK-10 renal = test system: TK-10 renal
COLO 205 colon = test system: COLO 205 colon
U251 CNS = test system: U251 CNS
CCRF-CEM leukemia = test system: CCRF-CEM leukemia
UO-31 renal = test system: UO-31 renal

Row | SMILES | GI50 (SN12C renal) | TGI (SN12C renal) | GI50 (SF-539 CNS) | TGI (SF-539 CNS) | GI50 (PC-3 prostate) | TGI (PC-3 prostate) | GI50 (OVCAR-8 ovarian) | TGI (OVCAR-8 ovarian) | GI50 (NCI-H226 lung) | TGI (NCI-H226 lung) | GI50 (TK-10 renal) | TGI (TK-10 renal) | GI50 (COLO 205 colon) | TGI (COLO 205 colon) | GI50 (U251 CNS) | TGI (U251 CNS) | GI50 (CCRF-CEM leukemia) | TGI (CCRF-CEM leukemia) | GI50 (UO-31 renal) | TGI (UO-31 renal)
1 | Oc1ccc(-c2nc3ccc4[nH]ncc4c3c3c2CCCC3)c(F)c1 | 2.99 µM | 12.5 µM | 2.41 µM | 10.2 µM | 2.75 µM | 14.8 µM | 1.92 µM | 9.39 µM | 5.26 µM | 69.9 µM | 2 µM | 9.53 µM | 2.25 µM | 5.56 µM | 1.45 µM | 6.36 µM | 2.05 µM | 11.4 µM | 2.6 µM | 8.35 µM
2 | CCN1C(=O)CCCc2c1ccc(Nc1ncc(Cl)c(NC3[C@@H](C(N)=O)[C@@H]4C=C[C@H]3C4)n1)c2OC (stereo partly drawn) | 2.53 µM | 57.8 µM | 1.23 µM | 8.94 µM | 1.49 µM | 18 µM | 1.41 µM | 32.2 µM | 1.56 µM | 12.7 µM | 0.897 µM | 4.38 µM | 0.633 µM | 2.48 µM | 1.12 µM | 13.9 µM | 0.607 µM | 17.9 µM | 0.809 µM | 4.07 µM
3 | COc1cccc(/C=N/NC(=S)NC2CC3CCC2C3)c1O (stereo not drawn) | 5.09 µM | 22.9 µM | 10.8 µM | 29.3 µM | 8.5 µM | 27 µM | 5.2 µM | 18.5 µM | 2.38 µM | 10.9 µM | 16.4 µM | 31.5 µM | 96.7 µM | > 100 µM | 7.57 µM | 26.7 µM | 6.65 µM | 38.7 µM | 2.3 µM | 9.93 µM
4 | COc1cc(-c2cc(-c3ccc(Nc4ccnc5cc(Cl)ccc45)cc3)nc(N3CCOCC3)n2)cc(OC)c1OC | 1.93 µM | 3.81 µM | 1.94 µM | 3.67 µM | 1.78 µM | 3.69 µM | 2.12 µM | 4.7 µM | 11.4 µM | 38.2 µM | 1.82 µM | 3.3 µM | 2.79 µM | 9.36 µM | 1.62 µM | 3.12 µM | 1.54 µM | 6.17 µM | 1.57 µM | 3.11 µM
5 | Cc1ccc(C(NC(=O)c2ccccc2)c2ccc3cccnc3c2O)cc1 (stereo not drawn) | 0.451 µM | 48.7 µM | 0.318 µM | 1.91 µM | 0.354 µM | 26.3 µM | 0.306 µM | 25.1 µM | 0.302 µM | 3.69 µM | 0.413 µM | 24.1 µM | 0.44 µM | 18.5 µM | 0.249 µM | 18.4 µM | 0.0783 µM | – | 0.198 µM | 1.19 µM
6 | CCCCCCNC(=O)Oc1ccc(/C(=C(/C)Cc2ccc(OC)cc2)c2ccc(OCCCN(C)C)cc2)cc1 | 14.7 µM | 28.3 µM | 16.2 µM | 30.3 µM | 14.6 µM | 28.2 µM | 17.3 µM | 34.5 µM | 19.4 µM | 36 µM | 17.2 µM | 31.6 µM | 14.6 µM | 29.7 µM | 13 µM | 26.5 µM | 16.3 µM | 33.8 µM | 10.9 µM | 23.2 µM
7 | N[C@@H]1C(=O)N2C(C(=O)OC(c3ccccc3)c3ccccc3)=C(CCl)CS[C@H]12 | 41 µM | > 100 µM | 23.5 µM | 50.2 µM | 32.4 µM | > 100 µM | 27.3 µM | > 77 µM | 55.2 µM | > 100 µM | 50.1 µM | > 100 µM | 40.3 µM | > 100 µM | 29.2 µM | > 78.9 µM | – | > 61.6 µM | 47.3 µM | > 100 µM
8 | COC1=C(C)C(=O)c2c(c(CCCl)c3n2CCC3O)C1=O (stereo not drawn) | 0.694 µM | 14.2 µM | 0.302 µM | 1.16 µM | 1.42 µM | 10.8 µM | 1.78 µM | 23.9 µM | 0.764 µM | 5.5 µM | 0.296 µM | 0.763 µM | 0.203 µM | 0.72 µM | 0.36 µM | 11.9 µM | 4.6 µM | > 72.2 µM | 0.545 µM | 2.42 µM
9 | CC(C)N1CCN(Cc2ccc3c(NNC(=O)c4ccccc4)nc4cc(F)ccc4n23)CC1 | 0.529 µM | 12.8 µM | 0.403 µM | 1.82 µM | 0.402 µM | 12.7 µM | 0.381 µM | 27.4 µM | 0.534 µM | 8.18 µM | 0.216 µM | 23.9 µM | 0.273 µM | 3.47 µM | 0.296 µM | 2.01 µM | 0.146 µM | 4.09 µM | 0.0688 µM | 3.14 µM
